Patent publication US9156796B2, “Benzoimidazole-carboxylic acid amide derivatives as APJ receptor modulators” (SANOFI, priority 2013, dated 2015)

What follows are molecules tested against T1, human apelin receptor (Homo sapiens, UniProt P35414) (assay: Determination of agonism on the human apelin receptor by a calcium fluorescence assay (FLIPR)). Settings: EC50 (APJ agonism), HEK293 cells stably transfected with human apelin receptor and Giaq protein, Fluo-4 calcium fluorescence.
T1 construct: expressed in transfected cells
T1 sequence (P35414 1-380): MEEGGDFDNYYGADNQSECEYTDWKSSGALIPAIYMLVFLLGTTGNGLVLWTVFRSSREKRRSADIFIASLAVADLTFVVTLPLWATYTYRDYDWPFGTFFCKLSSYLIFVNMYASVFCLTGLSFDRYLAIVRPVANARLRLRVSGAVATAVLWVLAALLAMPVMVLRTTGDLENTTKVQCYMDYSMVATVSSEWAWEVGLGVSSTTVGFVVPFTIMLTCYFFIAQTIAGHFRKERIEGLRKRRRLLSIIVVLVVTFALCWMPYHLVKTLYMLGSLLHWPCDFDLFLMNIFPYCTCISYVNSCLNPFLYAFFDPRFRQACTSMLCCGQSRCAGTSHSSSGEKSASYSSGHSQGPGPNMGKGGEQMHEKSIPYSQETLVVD
Format: cell-based
Procedure, shortened: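 Agonist EC50s come from peak intracellular calcium transients recorded by FLIPR Tetra, scaled to the 1 μM apelin-13 maximum per plate. Test system: HEK293 stably transfected with human apelin receptor plus Giaq, Fluo-4-loaded (4 μM, 1 h, 37 °C, pH 7.4 buffer with probenecid); ≥7 concentrations, triplicates.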

SMILES	EC50 [nM]
CCCC[C@H](CO)NC(=O)c1ccc2c(c1)nc(CC1CCCC1)n2C(CC)CC [Example 183, 2-Cyclopentylmethyl-1-(1-ethyl-propyl)-1H-benzoimidazole-5-carboxylic acid ((R)-1-hydroxymethyl-pentyl)-amide]	26300

Same assay, conditions: HEK293 cells stably transfected with human apelin receptor and Giaq protein, Fluo-4 calcium fluorescence, read-out: EC50 (APJ agonism)

SMILES	EC50 [nM]
CCC(CC)n1c(Cc2cccs2)nc2cc(C(=O)N[C@@H](CC(C)C)C(=O)NCC3CCCN(CCc4ccccc4)C3)ccc21 (stereo partly drawn) [Example 302, 1-(1-Ethyl-propyl)-2-thiophen-2-ylmethyl-1H-benzoimidazole-5-carboxylic acid {(S)-3-methyl-1-[(1-phenethyl-piperidin-3-ylmethyl)-carbamoyl]-butyl}-amide]	386
CCC(CC)n1c(Cc2cccs2)nc2cc(C(=O)N[C@@H](CC(C)C)C(=O)NCC#N)ccc21 [Example 403, 1-(1-Ethyl-propyl)-2-thiophen-2-ylmethyl-1H-benzoimidazole-5-carboxylic acid [(S)-1-(cyanomethyl-carbamoyl)-3-methyl-butyl]-amide]	1610
CCC(CC)n1c(Cc2cccs2)nc2cc(C(=O)N[C@@H](CC(C)C)C(=O)NCCOC)ccc21 [Example 268, 1-(1-Ethyl-propyl)-2-thiophen-2-ylmethyl-1H-benzoimidazole-5-carboxylic acid [(S)-1-(2-methoxy-ethylcarbamoyl)-3-methyl-butyl]-amide]	552
CCC(CC)n1c(Cc2cccs2)nc2cc(C(=O)NC(Cc3ccc(C(F)(F)F)cc3)C(=O)O)ccc21 (stereo not drawn) [Example 31, 2-{[1-(1-Ethyl-propyl)-2-thiophen-2-ylmethyl-1H-benzoimidazole-5-carbonyl]-amino}-3-(4-trifluoromethyl-phenyl)-propionic acid]	4110
C[C@@H]1CCCC[C@H]1n1c(Cc2cccs2)nc2cc(C(=O)NC(CC(=O)O)CC3CCCCC3)ccc21 (single isomer, unassigned) [Example 456]	152
CCC(CC)n1c(Cc2cccs2)nc2cc(C(=O)NC(CC(N)=O)CC(C)C)ccc21 (stereo not drawn) [Example 174, 1-(1-Ethyl-propyl)-2-thiophen-2-ylmethyl-1H-benzoimidazole-5-carboxylic acid (1-carbamoylmethyl-3-methyl-butyl)-amide]	301
CCC(CC)n1c(Cc2cccs2)nc2cc(C(=O)N[C@@H](CC(C)C)C(=O)N3CCC(N4CCOCC4)CC3)ccc21 [Example 334, 1-(1-Ethyl-propyl)-2-thiophen-2-ylmethyl-1H-benzoimidazole-5-carboxylic acid [(S)-3-methyl-1-(4-morpholin-4-yl-piperidine-1-carbonyl)-butyl]-amide]	412
CCC(CC)n1c(Cc2cccs2)nc2cc(C(=O)N[C@@H](CC(C)C)C(=O)N(C)CC3CCCO3)ccc21 (stereo partly drawn) [Example 387, 1-(1-Ethyl-propyl)-2-thiophen-2-ylmethyl-1H-benzoimidazole-5-carboxylic acid {(S)-3-methyl-1-[methyl-(tetrahydro-furan-2-ylmethyl)-carbamoyl]-butyl}-amide]	1140
CC(C)C[C@H](NC(=O)c1ccc2c(c1)nc(Cc1cccs1)n2C1CCCCC1C)C(=O)O (single isomer, unassigned) [Example 414]	664
CCC(CC)n1c(Cc2cccs2)nc2cc(C(=O)N[C@@H](CC(C)C)C(=O)NCCc3cccs3)ccc21 [Example 223, 1-(1-Ethyl-propyl)-2-thiophen-2-ylmethyl-1H-benzoimidazole-5-carboxylic acid [(S)-3-methyl-1-(2-thiophen-2-yl-ethylcarbamoyl)-butyl]-amide]	6960
CC(C)C[C@@H](CC(=O)O)NC(=O)c1ccc2c(c1)nc(Cc1cccs1)n2C1CCCCC1C (single isomer, unassigned) [Example 439]	662
CCC(CC)n1c(Cc2cccs2)nc2cc(C(=O)N[C@H](CCC(=O)O)CC(C)C)ccc21 [Example 163, (R)-4-{[1-(1-Ethyl-propyl)-2-thiophen-2-ylmethyl-1H-benzoimidazole-5-carbonyl]-amino}-6-methyl-heptanoic acid]	51
CCC(CC)n1c(CC2CCCO2)nc2cc(C(=O)N[C@H](CC(=O)O)CC(C)C)ccc21 (stereo partly drawn) [Example 160, (S)-3-{[1-(1-Ethyl-propyl)-2-(tetrahydro-furan-2-ylmethyl)-1H-benzoimidazole-5-carbonyl]-amino}-5-methyl-hexanoic acid]	820
CCC(CC)n1c(Cc2ccc(Cl)s2)nc2cc(C(=O)N[C@@H](CC(C)C)C(=O)O)ccc21 [Example 82, (S)-2-{[2-(5-Chloro-thiophen-2-ylmethyl)-1-(1-ethyl-propyl)-1H-benzoimidazole-5-carbonyl]-amino}-4-methyl-pentanoic acid]	23300
CCC(CC)n1c(Cc2cccs2)nc2cc(C(=O)NC(CC(=O)O)CC3CCCCC3)ccc21 (single isomer, unassigned) [Example 454]	126
CCC(CC)n1c(Cc2cccs2)nc2cc(C(=O)N[C@@H](CC(C)C)C(=O)NCCCN3CCN(Cc4c(F)cccc4Cl)CC3)ccc21 [Example 277, 1-(1-Ethyl-propyl)-2-thiophen-2-ylmethyl-1H-benzoimidazole-5-carboxylic acid ((S)-1-{3-[4-(2-chloro-6-fluoro-benzyl)-piperazin-1-yl]-propylcarbamoyl}-3-methyl-butyl)-amide]	2100
CCC(CC)n1c(Cc2cccs2)nc2cc(C(=O)N[C@@H](CC(C)C)C(=O)NCCc3cccc(OC)c3)ccc21 [Example 360, 1-(1-Ethyl-propyl)-2-thiophen-2-ylmethyl-1H-benzoimidazole-5-carboxylic acid {(S)-1-[2-(3-methoxy-phenyl)-ethylcarbamoyl]-3-methyl-butyl}-amide]	21200
CCC(CC)n1c(CC2CCCC2)nc2cc(C(=O)N[C@H](CO)C(C)C)ccc21 [Example 187, 2-Cyclopentylmethyl-1-(1-ethyl-propyl)-1H-benzoimidazole-5-carboxylic acid ((S)-1-hydroxymethyl-2-methyl-propyl)-amide]	29000
CCCC[C@H](NC(=O)c1ccc2c(c1)nc(Cc1cccs1)n2C1CCCCC1C)C(=O)O (stereo partly drawn) [Example 16, (S)-2-{[1-(2-Methyl-cyclohexyl)-2-thiophen-2-ylmethyl-1H-benzoimidazole-5-carbonyl]-amino}-hexanoic acid]	117
CCC(CC)n1c(Cc2cccs2)nc2cc(C(=O)N[C@@H](CC(C)C)C(=O)NC3CCN(Cc4ccccc4)C3)ccc21 (stereo partly drawn) [Example 319, 1-(1-Ethyl-propyl)-2-thiophen-2-ylmethyl-1H-benzoimidazole-5-carboxylic acid [(S)-1-(1-benzyl-pyrrolidin-3-ylcarbamoyl)-3-methyl-butyl]-amide]	1520
CCC(CC)n1c(Cc2cccs2)nc2cc(C(=O)N[C@@H](CC(C)C)C(=O)NCC3CCCN(C)C3)ccc21 (stereo partly drawn) [Example 297, 1-(1-Ethyl-propyl)-2-thiophen-2-ylmethyl-1H-benzoimidazole-5-carboxylic acid {(S)-3-methyl-1-[(1-methyl-piperidin-3-ylmethyl)-carbamoyl]-butyl}-amide]	390
CC(C)C[C@H](NC(=O)c1ccc2c(c1)nc(Cc1cccs1)n2C1CCCCC1C)C(=O)O (single isomer, unassigned) [Example 412]	106
CCC(CC)n1c(Cc2cccs2)nc2cc(C(=O)N[C@@H](CC(C)C)C(=O)NCCC(F)(F)F)ccc21 [Example 251, 1-(-Ethyl-propyl)-2-thiophen-2-ylmethyl-1H-benzoimidazole-5-carboxylic acid [(S)-3-methyl-1-(3,3,3-trifluoro-propylcarbamoyl)-butyl]-amide]	2560
CCC(CC)n1c(Cc2cccs2)nc2cc(C(=O)NC(CC3CCC(C)(C)CC3)C(=O)O)ccc21 (single isomer, unassigned) [Example 444]	3910
CCC(CC)n1c(Cc2cccs2)nc2cc(C(=O)N[C@@H](CC(C)C)C(=O)N3CCC(N(C)CCN(C)C)CC3)ccc21 [Example 310, 1-(1-Ethyl-propyl)-2-thiophen-2-ylmethyl-1H-benzoimidazole-5-carboxylic acid ((S)-1-{4-[(2-dimethylamino-ethyl)-methyl-amino]-piperidine-1-carbonyl}-3-methyl-butyl)-amide]	162
CC(C)C[C@@H](CC(=O)O)NC(=O)c1ccc2c(c1)nc(Cc1cccs1)n2C1CCCCC1C (stereo partly drawn) [Example 101, (S)-5-Methyl-3-{[1-(2-methyl-cyclohexyl)-2-thiophen-2-ylmethyl-1H-benzoimidazole-5-carbonyl]-amino}-hexanoic acid]	106
CCC(CC)n1c(Cc2cccs2)nc2cc(C(=O)N[C@@H](CC(C)C)C(=O)NCCCOCC3CC3)ccc21 [Example 391, 1-(1-Ethyl-propyl)-2-thiophen-2-ylmethyl-1H-benzoimidazole-5-carboxylic acid [(S)-1-(3-cyclopropylmethoxy-propylcarbamoyl)-3-methyl-butyl]-amide]	2180
CCC(CC)n1c(CC2CCCCC2)nc2cc(C(=O)N[C@@H](CC(C)C)C(=O)O)ccc21 [Example 120, (S)-2-{[2-Cyclohexylmethyl-1-(1-ethyl-propyl)-1H-benzoimidazole-5-carbonyl]-amino}-4-methyl-pentanoic acid]	24100
CCC(CC)n1c(Cc2cccs2)nc2cc(C(=O)N[C@H](CC(=O)O)C(C)C)ccc21 [Example 161, (R)-3-{[1-(1-Ethyl-propyl)-2-thiophen-2-ylmethyl-1H-benzoimidazole-5-carbonyl]-amino}-4-methyl-pentanoic acid]	2300
